Results published in patent publication US11883468B2, “Compositions and methods to suppress tumor growth in bone, prevent cachectic muscle loss, and preserve skeletal integrity” (United States Government As Represented By The Department …, priority 2019, dated 2024).

Tests used:
MDA-MB-231 BC cells = experiment: EVOCA with MDA-MB-231 cells, tumor gene mRNA by PCR; format: cell-based, human; conditions: 7d EVOCA
Protocol: FIGS. 7A, 7B, and 7C show the effects of bPTH7-34DD on MDA-MB-231; 7d EVOCA, PCR as done in FIG. 5.
(§1) EVOCA (ex vivo organ co-culture assay) of breast cancer cells and bone: Segments of neonatal mouse bone are prepared by a modification of Mohammad et al [2008]. Calvariae from euthanized 14 day old Swiss Webster pups are cut into 5 mm disks with a biopsy punch, yielding two disks (hemi-calvariae) per pup, and placed into wells of uncoated 24-well plates. Calvariae from βArr2−/− and +/+ littermates, as available, can be shipped in sterile tubes in standard tissue culture medium by overnight FedEx from the Luttrell laboratory at Medical University of South Carolina. Bones shipped overnight in media survive the shipping and give reproducible results, compared to freshly harvested bones. […] At the end of the incubation, bone are either fixed and decalcified for routine histology or homogenized for RNA isolation with a bead beater, using QIAGEN RNeasy mini kits, converted to cDNA (Biorad iScript,), and analyzed by quantitative PCR using Biorad SYBR green PCR kits and a Biorad iCycler single-color real-time detection system. […] EVOCA cultures can be analyzed by histology and IHC staining. […]

[1] = tested on: MDA-MB-231 breast cancer cells; experiment: EVOCA (ex vivo organ co-culture assay of tumor + bone), tumor burden by SSQ-PCR for hRPL32; format: cell-based, human; conditions: 7d EVOCA, wt bones
Protocol: 7D EVOCA. Tumor burden by SSQ-PCR for hRPL32.
as §1, with “bones. Cancer cells (2-10×10^3, depending on cell types and ability to adhere to bones; e.g., 2,000 for MDA-MB-231) are added in 0.5 ml BGJb medium (Life Technologies) +10% fetal calf serum and incubated at 37° C. in 5% CO2.” for “bones.”

bone = conditions: cited from earlier work
calvarial osteoblasts = conditions: osteoblasts from treated mice; cited from earlier work
[2] = 4 or 8 weeks, once-daily injection
[3] = continuous infusion, 40 μg/kg/d

SMILES	tumor hPTHrP mRNA (MDA-MB-231 BC cells)	MDA-MB-231 tumor growth in bone [1]	cortical bone parameters (periosteal circumference and cortical thickness) (bone; [2])	mineral apposition (MAR, BFR) (bone; [2])	tibial trabecular bone parameters (BV/TV, trabecular number) (bone; [2])	elevation of urinary calcium excretion (bone; [3])	mRNA for Dars, aspartyl-tRNA synthetase, in bone (bone; [3])	mRNA of Gab 1 in bone (bone; [3])	serum osteocalcin (bone; once-daily injection)	osteoblast number and osteoid surface (bone; quantitative histomorphometry)	osteoclast numbers (bone; quantitative histomorphometry)	anabolic markers of Obl activity (RUNX2, Alk Phos, Col1A1) (calvarial osteoblasts)
Fc1ccc(Cl)cc1-c1nc(Nc2ccncc2)c2nccnc2n1 [SD208]	not seen	–	–	–	–	–	–	–	–	–	–	–
CC[C@H](C)[C@H](NC(=O)[C@H](CCC(=O)O)NC(=O)[C@H](CO)NC(=O)[C@@H](NC(=O)[C@@H](N)CO)C(C)C)C(=O)N[C@@H](CCC(N)=O)C(=O)N[C@@H](CC(C)C)C(=O)N[C@@H](CCSC)C(=O)N[C@@H](Cc1cnc[nH]1)C(=O)N[C@@H](CC(N)=O)C(=O)N[C@@H](CC(C)C)C(=O)NCC(=O)N[C@@H](CCCCN)C(=O)N[C@@H](Cc1cnc[nH]1)C(=O)N[C@@H](CC(C)C)C(=O)N[C@@H](CC(N)=O)C(=O)N[C@@H](CO)C(=O)N[C@@H](CCSC)C(=O)N[C@@H](CCC(=O)O)C(=O)N[C@@H](CCCN=C(N)N)C(=O)N[C@H](C(=O)N[C@@H](CCC(=O)O)C(=O)N[C@@H](Cc1c[nH]c2ccccc12)C(=O)N[C@@H](CC(C)C)C(=O)N[C@@H](CCCN=C(N)N)C(=O)N[C@@H](CCCCN)C(=O)N[C@@H](CCCCN)C(=O)N[C@@H](CC(C)C)C(=O)N[C@@H](CCC(N)=O)C(=O)N[C@@H](CC(=O)O)C(=O)N[C@H](C(=O)N[C@@H](Cc1cnc[nH]1)C(=O)N[C@@H](CC(N)=O)C(=O)N[C@@H](Cc1ccccc1)C(=O)O)C(C)C)C(C)C [hPTH1-34]	–	increased	increased only by hPTH1-34	equivalently increased	increased by both	5 ×	increased	doubled	equivalently raised	increased by both	increased only by hPTH1-34	strongly increased
